Test results from PMC6743422, “Preclinical disposition of MGS0274 besylate, a prodrug of a potent group II metabotropic glutamate receptor agonist MGS0008 for the treatment of schizophrenia” (Pharmacology Research & Perspectives, 2019).
pIC50: −log10 of the molar value. Where two headings read alike, the source gives them in different places. Marks after values point to notes of the source that are not given here.

Legend:
CYP2B6 mRNA = experiment: CYP induction in primary cultured cryopreserved human hepatocytes, CYP2B6 mRNA; conditions: three consecutive 24-hour treatments
Procedure: (§1) The primary cultured cryopreserved human hepatocytes were plated in a collagen‐coated 96‐well plate (Becton Dickinson, Franklin Lakes, NJ) with Williams’ Medium E (Invitrogen, Carlsbad, CA) containing Geltrex^TM (Invitrogen) and Maintenance Supplements (Invitrogen) and maintained in humidified air‐5% CO2 at 37°C for 3 days. Then, the cells were cultured for three consecutive 24‐hour treatments with MGS0008 (3‐30 µmol/L), with MGS0274 besylate (3‐30 µmol/L), or with positive controls (omeprazole for CYP1A2 at 50 µmol/L, phenobarbital for CYP2B6 at 1000 µmol/L, or rifampicin for CYP3A4 at 10 µmol/L). The mRNA expression levels of CYP1A2, 2B6, and 3A4 were measured using the real‐time polymerase chain reaction (RT‐PCR) method (7500 Fast RT‐PCR system; Applied Biosystems, Foster City, CA) with TaqMan® Fast Universal PCR Master Mix (probe ID: Hs00167927_m1 for CYP1A2, Hs04183483_g1 for CYP2B6, and Hs00604506_ml for CYP3A4; Applied Biosystems). The fold change in the mRNA expression was calculated using the 2^‐ΔΔCT method.22

CYP2B6 = molecular target: T1, CYP2B6 (Homo sapiens, UniProt P20813); experiment: CYP inhibition in human liver microsomes, CYP2B6; assay type: in vitro ADME; conditions: human liver microsomes 0.1 mg/mL; probe Bupropion, metabolite Hydroxybupropion
T1 construct: using probe substrates for each CYP isoform and human liver microsomes; from tissue; host or cells: human liver microsomes
T1 sequence (P20813 whole entry, canonical isoform): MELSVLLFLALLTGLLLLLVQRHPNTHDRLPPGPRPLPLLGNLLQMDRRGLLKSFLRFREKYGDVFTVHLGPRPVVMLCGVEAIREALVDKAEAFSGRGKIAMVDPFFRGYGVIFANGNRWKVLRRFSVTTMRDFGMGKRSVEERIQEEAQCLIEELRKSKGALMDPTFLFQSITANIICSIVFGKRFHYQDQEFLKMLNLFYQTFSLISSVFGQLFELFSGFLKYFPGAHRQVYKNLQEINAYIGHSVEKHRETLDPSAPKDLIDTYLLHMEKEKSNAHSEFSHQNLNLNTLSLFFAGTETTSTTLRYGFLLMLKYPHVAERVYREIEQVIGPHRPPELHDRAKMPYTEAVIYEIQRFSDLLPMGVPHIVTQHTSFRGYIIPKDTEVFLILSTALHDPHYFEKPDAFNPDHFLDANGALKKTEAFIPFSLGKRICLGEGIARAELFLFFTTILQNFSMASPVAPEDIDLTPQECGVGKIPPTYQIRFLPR

CYP2C19 = molecular target: T2, CYP2C19 (Homo sapiens, UniProt P33261); experiment: CYP inhibition in human liver microsomes, CYP2C19; assay type: in vitro ADME; conditions: human liver microsomes 0.1 mg/mL; probe (S)-Mephenytoin, metabolite 4'-Hydroxymephenytoin
T2 construct: using probe substrates for each CYP isoform and human liver microsomes; from tissue; host or cells: human liver microsomes
T2 sequence (P33261 whole entry, canonical isoform): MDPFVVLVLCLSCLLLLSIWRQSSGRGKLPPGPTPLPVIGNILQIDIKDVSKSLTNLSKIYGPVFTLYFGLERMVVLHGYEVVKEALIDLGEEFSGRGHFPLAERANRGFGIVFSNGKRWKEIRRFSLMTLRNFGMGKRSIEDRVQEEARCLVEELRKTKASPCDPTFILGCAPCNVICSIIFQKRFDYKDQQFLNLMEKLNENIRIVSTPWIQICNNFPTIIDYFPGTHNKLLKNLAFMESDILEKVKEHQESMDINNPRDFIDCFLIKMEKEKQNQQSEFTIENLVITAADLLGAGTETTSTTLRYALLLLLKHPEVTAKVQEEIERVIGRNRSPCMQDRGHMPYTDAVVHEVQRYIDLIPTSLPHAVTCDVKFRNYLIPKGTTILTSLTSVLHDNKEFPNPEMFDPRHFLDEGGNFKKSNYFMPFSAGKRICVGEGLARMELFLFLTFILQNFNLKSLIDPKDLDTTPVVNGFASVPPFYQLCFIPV

CYP1A2 = molecular target: T3, CYP1A2 (Homo sapiens, UniProt P05177); experiment: CYP inhibition in human liver microsomes, CYP1A2; assay type: in vitro ADME; conditions: human liver microsomes 0.1 mg/mL; probe Phenacetin, metabolite Acetaminophen
T3 construct: using probe substrates for each CYP isoform and human liver microsomes; from tissue; host or cells: human liver microsomes
T3 sequence (P05177 whole entry, canonical isoform): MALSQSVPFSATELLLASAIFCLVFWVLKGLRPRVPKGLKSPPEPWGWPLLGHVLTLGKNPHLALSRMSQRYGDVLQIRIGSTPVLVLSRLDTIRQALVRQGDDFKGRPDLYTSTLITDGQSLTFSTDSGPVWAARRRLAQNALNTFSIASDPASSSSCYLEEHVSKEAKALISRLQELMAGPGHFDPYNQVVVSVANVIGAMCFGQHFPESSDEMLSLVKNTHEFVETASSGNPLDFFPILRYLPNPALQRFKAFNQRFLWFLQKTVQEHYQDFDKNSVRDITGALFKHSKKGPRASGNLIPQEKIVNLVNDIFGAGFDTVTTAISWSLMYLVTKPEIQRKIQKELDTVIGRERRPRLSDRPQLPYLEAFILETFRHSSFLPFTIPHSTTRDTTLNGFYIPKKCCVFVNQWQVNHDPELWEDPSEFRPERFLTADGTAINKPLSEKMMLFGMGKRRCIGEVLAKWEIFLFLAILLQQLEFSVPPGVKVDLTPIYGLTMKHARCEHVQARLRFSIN
Procedure: The inhibition potential of MGS0008 (0.3‐100 µmol/L) and MGS0274 besylate (0.03‐10 µmol/L) on the activity of human cytochrome P450 (CYP) isoforms (CYP1A2, 2B6, 2C8, 2C9, 2C19, 2D6, and 3A) was investigated using probe substrates for each CYP isoform and human liver microsomes, of which the final protein concentration was set at 0.1 mg/mL (see Table S2). The assay was started by spiking the reaction mixture, which had been pre‐incubated at 37°C for 5 minutes, with NADP^+. After incubation for 5 to 10 minutes, the reaction was terminated by adding acetonitrile containing an internal standard for each probe substrate, and the resultant mixture was centrifuged. Aliquots of the supernatant were subjected to bioanalysis using LC‐MS/MS (see Table S1‐D).
The final protein concentration in the reaction mixture was set at 0.1 mg/mL. The values in parentheses represent the final concentrations of compounds added in each reaction mixture. […]

CYP3A4 mRNA = assay type: in vitro ADME, human; conditions: three consecutive 24-hour treatments
Procedure: as §1

[1] = test system: cultured human hepatocytes; experiment: Toxicity to the cultured human hepatocytes; assay type: cell-based; conditions: at the concentrations tested (3-30 μM)
CYP2D6 = molecular target: T4, CYP2D6 (Homo sapiens, UniProt P10635); experiment: CYP inhibition in human liver microsomes, CYP2D6; assay type: in vitro ADME; conditions: human liver microsomes 0.1 mg/mL; probe (±)-Bufuralol, metabolite 1'-Hydroxybufuralol
T4 construct: using probe substrates for each CYP isoform and human liver microsomes; from tissue; host or cells: human liver microsomes
T4 sequence (P10635 whole entry, canonical isoform): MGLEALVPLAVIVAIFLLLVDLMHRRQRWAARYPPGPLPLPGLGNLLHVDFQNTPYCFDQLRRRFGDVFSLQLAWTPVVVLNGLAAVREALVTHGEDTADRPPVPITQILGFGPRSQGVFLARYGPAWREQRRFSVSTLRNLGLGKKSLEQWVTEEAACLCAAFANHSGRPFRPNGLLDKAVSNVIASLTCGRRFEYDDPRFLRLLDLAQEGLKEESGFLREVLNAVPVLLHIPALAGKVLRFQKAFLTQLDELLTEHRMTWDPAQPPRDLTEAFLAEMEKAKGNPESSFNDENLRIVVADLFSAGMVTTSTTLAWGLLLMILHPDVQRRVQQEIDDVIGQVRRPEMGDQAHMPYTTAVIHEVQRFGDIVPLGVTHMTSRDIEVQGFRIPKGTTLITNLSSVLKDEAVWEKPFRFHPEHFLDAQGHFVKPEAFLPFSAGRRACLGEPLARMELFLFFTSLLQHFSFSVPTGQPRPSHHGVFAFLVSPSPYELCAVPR

CYP2C8 = molecular target: T5, CYP2C8 (Homo sapiens, UniProt P10632); experiment: CYP inhibition in human liver microsomes, CYP2C8; assay type: in vitro ADME; conditions: human liver microsomes 0.1 mg/mL; probe Amodiaquine, metabolite N-desethylamodiaquine
T5 construct: using probe substrates for each CYP isoform and human liver microsomes; from tissue; host or cells: human liver microsomes
T5 sequence (P10632 whole entry, canonical isoform): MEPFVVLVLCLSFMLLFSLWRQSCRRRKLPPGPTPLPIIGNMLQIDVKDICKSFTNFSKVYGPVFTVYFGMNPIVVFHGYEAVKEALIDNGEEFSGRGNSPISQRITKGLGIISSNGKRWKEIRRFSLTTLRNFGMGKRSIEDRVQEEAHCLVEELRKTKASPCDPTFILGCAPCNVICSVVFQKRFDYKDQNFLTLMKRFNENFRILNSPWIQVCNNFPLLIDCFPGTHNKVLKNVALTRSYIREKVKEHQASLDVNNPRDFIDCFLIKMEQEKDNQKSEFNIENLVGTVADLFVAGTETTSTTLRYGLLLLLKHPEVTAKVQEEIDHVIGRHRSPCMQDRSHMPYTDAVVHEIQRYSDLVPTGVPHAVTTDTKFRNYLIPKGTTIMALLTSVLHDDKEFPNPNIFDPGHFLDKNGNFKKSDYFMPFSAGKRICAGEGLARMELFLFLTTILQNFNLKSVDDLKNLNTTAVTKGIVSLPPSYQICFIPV

[2] = test system: human cytochrome P450 (CYP) isoforms (CYP1A2, 2B6, 2C8, 2C9, 2C19, 2D6, and 3A); experiment: CYP inhibition in human liver microsomes, all 7 isoforms together; assay type: in vitro ADME; conditions: MGS0008 0.3-100 µmol/L, MGS0274 besylate 0.03-10 µmol/L
[3] = test system: CYP1A2, 2B6, 2C8, 2C9, 2C19, 2D6 and 3A; experiment: as above; assay type: in vitro ADME; conditions: human, all the CYP isoforms tested, read-out: percent inhibition
[4] = test system: mRNA expression of CYP1A2, 2B6, and 3A4; experiment: CYP induction in human hepatocytes, CYP1A2, 2B6 and 3A4 together; assay type: in vitro ADME; conditions: 3-30 µmol/L; three lots of human hepatocytes
Procedure: as §1

CYP1A2 mRNA = experiment: CYP induction in primary cultured cryopreserved human hepatocytes, CYP1A2 mRNA; assay type: in vitro ADME; conditions: three consecutive 24-hour treatments
Procedure: as §1

CYP2C9 = molecular target: T6, CYP2C9 (Homo sapiens, UniProt P11712); experiment: CYP inhibition in human liver microsomes, CYP2C9; assay type: in vitro ADME; conditions: human liver microsomes 0.1 mg/mL; probe Diclofenac, metabolite 4'-Hydroxydiclofenac
T6 construct: using probe substrates for each CYP isoform and human liver microsomes; from tissue; host or cells: human liver microsomes
T6 sequence (P11712 whole entry, canonical isoform): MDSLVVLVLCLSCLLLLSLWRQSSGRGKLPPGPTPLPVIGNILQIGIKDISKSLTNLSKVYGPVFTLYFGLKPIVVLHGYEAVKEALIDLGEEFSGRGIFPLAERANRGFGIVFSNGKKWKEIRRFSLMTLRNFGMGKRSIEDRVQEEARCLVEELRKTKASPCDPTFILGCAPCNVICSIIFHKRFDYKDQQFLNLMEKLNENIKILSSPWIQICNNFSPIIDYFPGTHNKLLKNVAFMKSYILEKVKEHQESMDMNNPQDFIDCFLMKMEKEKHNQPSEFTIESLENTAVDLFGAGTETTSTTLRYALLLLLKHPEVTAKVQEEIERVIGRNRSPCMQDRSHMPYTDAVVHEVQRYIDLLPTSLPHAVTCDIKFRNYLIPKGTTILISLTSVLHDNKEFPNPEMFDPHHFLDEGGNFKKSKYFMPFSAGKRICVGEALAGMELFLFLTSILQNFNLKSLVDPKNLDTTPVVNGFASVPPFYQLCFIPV

[5] = test system: rat cryopreserved hepatocytes; experiment: In vitro metabolite profiling in rat cryopreserved hepatocytes; assay type: in vitro ADME; conditions: rat hepatocytes
Procedure: (§2) Rat, monkey, or human cryopreserved hepatocytes in Leivovitz L‐15 medium at 0.5 million cells/mL were incubated at 37°C for 1 hour with [^14C]MGS0274 besylate at 10 μmol/L. The reaction was terminated by adding 10% w/v trichloroacetic acid solution, and the resultant mixture was centrifuged. Aliquots of the supernatant were subjected to bioanalysis using high‐performance liquid chromatography equipped with radiochemical flow detection (RI‐HPLC) (see Table S1‐B). Aliquots of the supernatant from unlabeled incubation samples and authentic standards were also injected into a liquid chromatography‐mass spectrometry (LC‐MS) system under the same chromatographic conditions to compare their chromatographic retention times and mass spectral data (see Table S1‐B).

[6] = test system: conditioned avoidance responses; conditions: rat; cited from earlier work
[7] = test system: monkey cryopreserved hepatocytes; experiment: In vitro metabolite profiling in monkey cryopreserved hepatocytes; assay type: in vitro ADME; conditions: monkey hepatocytes
Procedure: as §2

Compound | Fold change of mRNA expression level CYP2B6 (CYP2B6 mRNA; hepatocyte lot Hu1487, 3 μM) | Fold change of mRNA expression level CYP2B6 (CYP2B6 mRNA; hepatocyte lot Hu1487, 10 μM) | Fold change of mRNA expression level CYP2B6 (CYP2B6 mRNA; hepatocyte lot Hu1487, 30 μM) | Fold change of mRNA expression level CYP2B6 (CYP2B6 mRNA; hepatocyte lot Hu8114, 3 μM) | Fold change of mRNA expression level CYP2B6 (CYP2B6 mRNA; hepatocyte lot Hu8114, 10 μM) | Fold change of mRNA expression level CYP2B6 (CYP2B6 mRNA; hepatocyte lot Hu8114, 30 μM) | Fold change of mRNA expression level CYP2B6 (CYP2B6 mRNA; hepatocyte lot Hu8123, 3 μM) | Fold change of mRNA expression level CYP2B6 (CYP2B6 mRNA; hepatocyte lot Hu8123, 10 μM) | Fold change of mRNA expression level CYP2B6 (CYP2B6 mRNA; hepatocyte lot Hu8123, 30 μM) | pIC50 (CYP2B6) | pIC50 (CYP2C19) | pIC50 (CYP1A2) | Fold change of mRNA expression level CYP3A4 (CYP3A4 mRNA; hepatocyte lot Hu1487, 3 μM) | Fold change of mRNA expression level CYP3A4 (CYP3A4 mRNA; hepatocyte lot Hu1487, 10 μM) | Fold change of mRNA expression level CYP3A4 (CYP3A4 mRNA; hepatocyte lot Hu1487, 30 μM) | Fold change of mRNA expression level CYP3A4 (CYP3A4 mRNA; hepatocyte lot Hu8114, 3 μM) | Fold change of mRNA expression level CYP3A4 (CYP3A4 mRNA; hepatocyte lot Hu8114, 10 μM) | Fold change of mRNA expression level CYP3A4 (CYP3A4 mRNA; hepatocyte lot Hu8114, 30 μM) | Fold change of mRNA expression level CYP3A4 (CYP3A4 mRNA; hepatocyte lot Hu8123, 3 μM) | Fold change of mRNA expression level CYP3A4 (CYP3A4 mRNA; hepatocyte lot Hu8123, 10 μM) | other results
CC(C)[C@@H]1CC[C@@H](C)C[C@H]1OC(=O)O[C@@H](C)OC(=O)[C@H]1[C@@H]2C[C@H](F)[C@@](N)(C(=O)O)[C@@H]21.O=S(=O)(O)c1ccccc1 [MGS0274 besylate, (1S,2S,3S,5R,6S)‐2‐amino‐3‐fluoro‐6‐({(1S)‐1‐[({[(1R,2S,5R)‐5‐methyl‐2‐(propan‐2‐yl)cyclohexyl]oxy}carbonyl)oxy]ethoxy}carbonyl)bicyclo[3.1.0]hexane‐2‐carboxylic acid monobenzenesulfonate] | 1.1 fold | 1.0 fold | 1.4 fold | 0.8 fold | 1.0 fold | 1.5 fold | 1.7 fold | 1.8 fold | 2.4 fold | < 5.00 | < 5.00 | < 5.00 | 1.4 fold | 1.5 fold | 1.8 fold | 1.1 fold | 0.9 fold | 1.1 fold | 0.8 fold | 0.8 fold | Fold change of mRNA expression level CYP3A4 (CYP3A4 mRNA; hepatocyte lot Hu8123, 30 μM): 0.9 fold; toxicity to the cultured human hepatocytes [1]: did not show detectable toxicity; pIC50 (CYP2D6): < 5.00; pIC50 (CYP2C8): < 5.00; inhibitory potential on the CYP isoforms [2]: no inhibitory potential; inhibition at 10 µM ([3]; at 10 μM): < 50%; induction potential on the CYP mRNA tested [4]: no apparent induction potential; Fold change of mRNA expression level CYP1A2 (CYP1A2 mRNA; hepatocyte lot Hu1487, 3 μM): 1.0 fold; Fold change of mRNA expression level CYP1A2 (CYP1A2 mRNA; hepatocyte lot Hu1487, 10 μM): 1.0 fold; Fold change of mRNA expression level CYP1A2 (CYP1A2 mRNA; hepatocyte lot Hu1487, 30 μM): 1.4 fold; Fold change of mRNA expression level CYP1A2 (CYP1A2 mRNA; hepatocyte lot Hu8114, 3 μM): 1.1 fold; Fold change of mRNA expression level CYP1A2 (CYP1A2 mRNA; hepatocyte lot Hu8114, 10 μM): 1.0 fold; Fold change of mRNA expression level CYP1A2 (CYP1A2 mRNA; hepatocyte lot Hu8114, 30 μM): 1.1 fold; Fold change of mRNA expression level CYP1A2 (CYP1A2 mRNA; hepatocyte lot Hu8123, 3 μM): 1.1 fold; Fold change of mRNA expression level CYP1A2 (CYP1A2 mRNA; hepatocyte lot Hu8123, 10 μM): 1.2 fold; Fold change of mRNA expression level CYP1A2 (CYP1A2 mRNA; hepatocyte lot Hu8123, 30 μM): 1.3 fold; pIC50 (CYP2C9): < 5.00
N[C@]1(C(=O)O)[C@H]2[C@@H](C[C@@H]1F)[C@@H]2C(=O)O [MGS0008, (1S,2S,3S,5R,6S)‐2‐amino‐3‐fluorobicyclo[3.1.0]hexane‐2,6‐dicarboxylic acid] | 0.9 fold | 0.7 fold | 0.9 fold | 0.8 fold | 0.8 fold | 1.0 fold | 1.2 fold | 1.2^b fold | 1.3 fold | < 4.00 | < 4.00 | < 4.00 | 1.3 fold | 1.3 fold | 1.7 fold | 1.4 fold | 1.4 fold | 1.9 fold | 1.0 fold | 0.7 fold | Fold change of mRNA expression level CYP3A4 (CYP3A4 mRNA; hepatocyte lot Hu8123, 30 μM): 0.9 fold; further metabolism of MGS0008 in hepatocytes [5]: no metabolites; toxicity to the cultured human hepatocytes [1]: did not show detectable toxicity; pIC50 (CYP2D6): < 4.00; pIC50 (CYP2C8): < 4.00; inhibitory potential on the CYP isoforms [2]: no inhibitory potential; inhibition at 100 µM ([3]; at 100 μM): < 50%; induction potential on the CYP mRNA tested [4]: no apparent induction potential; Fold change of mRNA expression level CYP1A2 (CYP1A2 mRNA; hepatocyte lot Hu1487, 3 μM): 0.8 fold; Fold change of mRNA expression level CYP1A2 (CYP1A2 mRNA; hepatocyte lot Hu1487, 10 μM): 0.7 fold; Fold change of mRNA expression level CYP1A2 (CYP1A2 mRNA; hepatocyte lot Hu1487, 30 μM): 1.0 fold; Fold change of mRNA expression level CYP1A2 (CYP1A2 mRNA; hepatocyte lot Hu8114, 3 μM): 1.1 fold; Fold change of mRNA expression level CYP1A2 (CYP1A2 mRNA; hepatocyte lot Hu8114, 10 μM): 1.0 fold; Fold change of mRNA expression level CYP1A2 (CYP1A2 mRNA; hepatocyte lot Hu8114, 30 μM): 1.1 fold; Fold change of mRNA expression level CYP1A2 (CYP1A2 mRNA; hepatocyte lot Hu8123, 3 μM): 0.9 fold; Fold change of mRNA expression level CYP1A2 (CYP1A2 mRNA; hepatocyte lot Hu8123, 10 μM): 1.1^b fold; Fold change of mRNA expression level CYP1A2 (CYP1A2 mRNA; hepatocyte lot Hu8123, 30 μM): 0.9 fold; pIC50 (CYP2C9): < 4.00; conditioned avoidance responses [6]: reduced; further metabolism of MGS0008 in hepatocytes [7]: no metabolites
